For series [1], the system named is PDE2A. The following applies: cited from earlier work; for pIC50: Figure 1.
Series [2] relates to PDE10A. Details: method as in PMID 27213312, PMID 26016549, PMID 29498659. To be noted: Figure 1; cited from earlier work.
Series [3] has as its target T1, PDE6AB (Homo sapiens, UniProt P16499+P35913).
T1 construct: purchased SB Drug Discovery (Scotland, U.K.); host or cells: baculoviral system
The experiment in a line: PDE6AB radiometric enzyme inhibition assay. It is filed as biochemical. The following applies: measured at 1 µM.

The target of series [4] is T2, PDE9A1 (Homo sapiens, UniProt O76083).
T2 construct: purchased SB Drug Discovery (Scotland, U.K.); host or cells: baculoviral system
T2 sequence (O76083 whole entry): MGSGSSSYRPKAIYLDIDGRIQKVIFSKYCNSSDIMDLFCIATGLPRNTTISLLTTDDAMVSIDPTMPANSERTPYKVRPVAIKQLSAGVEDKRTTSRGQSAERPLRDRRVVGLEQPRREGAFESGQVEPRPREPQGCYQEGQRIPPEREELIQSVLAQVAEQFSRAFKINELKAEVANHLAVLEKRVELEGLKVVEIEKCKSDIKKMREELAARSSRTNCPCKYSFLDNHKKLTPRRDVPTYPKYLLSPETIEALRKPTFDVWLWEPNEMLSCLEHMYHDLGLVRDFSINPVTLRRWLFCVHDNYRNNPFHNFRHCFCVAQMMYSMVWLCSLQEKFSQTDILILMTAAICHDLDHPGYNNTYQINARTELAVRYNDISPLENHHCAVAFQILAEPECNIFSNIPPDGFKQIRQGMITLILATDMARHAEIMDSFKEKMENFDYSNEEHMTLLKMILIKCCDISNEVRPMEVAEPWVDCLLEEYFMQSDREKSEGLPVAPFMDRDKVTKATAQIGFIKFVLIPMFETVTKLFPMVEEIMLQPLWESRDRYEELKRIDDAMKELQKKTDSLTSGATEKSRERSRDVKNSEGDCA
Description: PDE9A1 radiometric enzyme inhibition assay. In kind it is biochemical. To be noted: compound at 1 µM; read-out: Inhibition of PDE Sub-Types (%) 9A1.

Series [5] concerns the target T3, PDE4A1 (Homo sapiens, UniProt P27815).
T3 construct: purchased SB Drug Discovery (Scotland, U.K.); host or cells: baculoviral system
The experiment in a line: PDE4A1 radiometric enzyme inhibition assay. In kind it is biochemical. The following applies: compound at 1 µM; read-out: Inhibition of PDE Sub-Types (%) 4A1.

Series [6] addresses T4, PDE8A1 (Homo sapiens, UniProt O60658).
T4 construct: purchased SB Drug Discovery (Scotland, U.K.); host or cells: baculoviral system
The experiment in a line: PDE8A1 radiometric enzyme inhibition assay. It is filed as biochemical. To be noted: measured at 1 µM.

The target in series [7] is T5, PDE7A (Homo sapiens, UniProt Q13946).
T5 construct: purchased SB Drug Discovery (Scotland, U.K.); host or cells: baculoviral system
T5 sequence (Q13946 whole entry): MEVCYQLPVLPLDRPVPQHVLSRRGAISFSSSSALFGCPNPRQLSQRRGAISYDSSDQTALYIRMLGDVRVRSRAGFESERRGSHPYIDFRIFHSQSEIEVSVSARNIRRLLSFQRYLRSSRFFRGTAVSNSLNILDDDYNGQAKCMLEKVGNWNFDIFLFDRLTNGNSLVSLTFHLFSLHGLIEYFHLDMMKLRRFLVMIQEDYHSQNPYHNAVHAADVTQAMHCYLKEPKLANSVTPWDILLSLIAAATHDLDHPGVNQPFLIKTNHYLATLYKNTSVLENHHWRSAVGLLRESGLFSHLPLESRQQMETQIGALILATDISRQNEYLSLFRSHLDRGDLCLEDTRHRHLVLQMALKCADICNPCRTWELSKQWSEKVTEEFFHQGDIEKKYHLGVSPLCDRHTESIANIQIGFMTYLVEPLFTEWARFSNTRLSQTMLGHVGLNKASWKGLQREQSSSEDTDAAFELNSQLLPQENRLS
The experiment in a line: PDE7A radiometric enzyme inhibition assay. In kind it is biochemical. The following applies: measured at 1 µM.

Series [8] has as its target T6, PDE1A3 (Homo sapiens, UniProt P54750).
T6 construct: purchased SB Drug Discovery (Scotland, U.K.); host or cells: baculoviral system
The experiment in a line: PDE1A3 radiometric enzyme inhibition assay. It is filed as biochemical. The following applies: measured at 1 µM.

The nature of series [9]: Incubation with mouse liver microsomes, HPLC-UV-MS. (In general: Liver microsomes are a subcellular fraction often used to study metabolism.)
Description: After protein precipitation by addition of acetonitrile and subsequent centrifugation, the supernatant was examined by HPLC-UV-MS.
Analogously, preincubated NADPH (2 mM) was added, and the mixtures were gently shaken at 37 °C. After 90 min, portions of 1.0 mL of cold acetonitrile (−20 °C) were added, respectively, followed by vigorous shaking (30 s), cooling on ice (4 min), and centrifugation at 14,000 rpm (10 min). Supernatants were concentrated at 50 °C under a flow of nitrogen to provide residual volumes of 40–60 µL, which were reconditioned by adding acetonitrile/water 1:1 (v/v) to obtain samples of 100 µL, which were stored at 4 °C until analyzed by HPLC-UV-MS.
HPLC-UV-MS analyses were performed on a ReproSil-Pur 120 C18-AQ-column, 125 mm × 3 mm, 3 µm (Dr. Maisch GmbH, Ammerbuch, Germany) equipped with an appropriate precolumn at 25 °C and a flow rate of 0.7 mL/min. The solvent system consisted of Eluent A: water, containing 2 mM ammonium acetate, and Eluent B: water/acetonitrile 20/80 (v/v), containing 2 mM ammonium acetate. Two methods were applied. Method A (gradient elution, % acetonitrile): 0–1.5 min, 10%; 1.5–10 min, 10–80%; 10-13 min, 80%; 13–16 min 10%. Method B (isocratic elution, % acetonitrile): 0–25 min, 42%. […] MSQ Plus single quadrupole mass spectrometer was operated in positive electrospray ionization mode: probe temperature 500 °C, needle voltage 5 V, cone voltage 75 V.
Series [10] deals with T7, PDE5A1 (Homo sapiens, UniProt O76074).
T7 construct: purchased SB Drug Discovery (Scotland, U.K.); host or cells: baculoviral system
Description: PDE5A1 radiometric enzyme inhibition assay. In kind it is biochemical. To be noted: compound at 1 µM; read-out: Inhibition of PDE Sub-Types (%) 5A1.

In series [11] the target is T8, PDE11A (Homo sapiens, UniProt Q9HCR9).
T8 construct: purchased SB Drug Discovery (Scotland, U.K.); host or cells: baculoviral system
Description: PDE11A radiometric enzyme inhibition assay. It is filed as biochemical. The following applies: measured at 1 µM.

In series [12] the target is T9, PDE3A (Homo sapiens, UniProt Q14432).
T9 construct: purchased SB Drug Discovery (Scotland, U.K.); host or cells: baculoviral system
The experiment in a line: PDE3A radiometric enzyme inhibition assay. In kind it is biochemical. To be noted: measured at 1 µM.

The target in series [13] is T10, PDE10A1 (Homo sapiens, UniProt Q9Y233). Description: PDE10A1 radiometric enzyme inhibition assay. To be noted: for Inhibition of PDE Sub-Types (%) 10A1: compound at 1 µM.
T10 sequence (Q9Y233 1-779 isoform Q9Y233-1): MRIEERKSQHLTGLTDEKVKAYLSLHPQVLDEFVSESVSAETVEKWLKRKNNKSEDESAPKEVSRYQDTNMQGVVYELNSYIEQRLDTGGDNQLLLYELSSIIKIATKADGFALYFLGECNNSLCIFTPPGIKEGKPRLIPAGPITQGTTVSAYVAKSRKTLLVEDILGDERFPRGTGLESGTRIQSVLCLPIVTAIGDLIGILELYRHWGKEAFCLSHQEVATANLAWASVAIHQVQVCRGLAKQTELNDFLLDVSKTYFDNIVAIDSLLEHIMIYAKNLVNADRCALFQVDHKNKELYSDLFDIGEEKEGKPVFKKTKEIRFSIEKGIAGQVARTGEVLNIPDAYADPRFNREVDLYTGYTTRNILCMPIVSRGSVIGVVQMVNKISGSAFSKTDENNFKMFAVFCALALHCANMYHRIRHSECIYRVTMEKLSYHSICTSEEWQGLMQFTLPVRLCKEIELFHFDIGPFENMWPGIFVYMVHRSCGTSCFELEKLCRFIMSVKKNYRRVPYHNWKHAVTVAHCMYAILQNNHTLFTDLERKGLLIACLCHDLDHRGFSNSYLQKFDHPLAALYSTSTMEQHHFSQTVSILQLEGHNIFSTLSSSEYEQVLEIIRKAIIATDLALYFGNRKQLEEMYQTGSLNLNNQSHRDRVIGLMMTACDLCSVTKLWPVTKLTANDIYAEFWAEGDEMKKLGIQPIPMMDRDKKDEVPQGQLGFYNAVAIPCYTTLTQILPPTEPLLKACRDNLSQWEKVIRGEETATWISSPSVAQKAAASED
Description: (§1) The phosphodiesterase assays were performed using recombinant human PDE enzymes expressed in a baculoviral system. […] The radiometric assay was a modification of the two-step method of Thompson and Appleman [45], which was adapted for 96-well plate format.
(§2) Firstly, tritium-labeled cyclic AMP or cyclic GMP was hydrolyzed to 5′-AMP or 5′-GMP by phosphodiesterase. The 5′-AMP or 5′-GMP was then further hydrolyzed to adenosine or guanosine by nucleotidase in snake venom. An anion-exchange resin bound all charged nucleotides and left [^3H]adenosine or [^3H]guanosine as the only labeled compound to be counted by liquid scintillation. Briefly, 50 µL of diluted human PDE enzyme were incubated with 50 µL of [^3H]-cAMP or [^3H]-cGMP and 11 µL of 50% DMSO (or compound dilution) for 20 min (at 30 °C). Reactions were carried out in a Greiner 96-deep well 1-mL master-block. The enzyme was diluted in 20 mM Tris HCl pH 7.4 and [^3H]-cAMP or [^3H]-cGMP are diluted in 10 mM MgCl2, 40 mM Tris HCl pH 7.4. The reaction is terminated by denaturing the PDE enzyme (at 70 °C for 2 min), after which 25 µL of snake venom nucleotidase were added and incubated for 10 min (at 30 °C). Plates were centrifuged for 9 seconds before incubation. After incubation, 200 µL of Dowex resin were added, and the plate was shaken for 20 min then centrifuged for 3 min at 2500 r.p.m. Fifty microliters of supernatant were removed and added to 200 µL of MicroScint-20 in white plates (Greiner 96-well Optiplate) and shaken for 30 min before reading on a Perkin Elmer TopCount Scintillation Counter.
(§3) Compounds were tested at a concentration of 10 nM against human PDE2A3 and at 1 µM for PDE4A1, PDE5A, PDE6AB, PDE9A1, and PDE10A1. The percentage of inhibition of the compounds and standard inhibitors was determined and compared to historical assay data to ensure that they fell within acceptable ranges.
In series [14] the target is T11, human PDE2A3 (Homo sapiens, UniProt O00408). The experiment in a line: PDE2A3 radiometric enzyme inhibition assay. The following applies: for Inhibition of PDE Sub-Types (%) 2A3: compound at 10 nM; for Selectivity Ratio (PDE10A/PDE2A): ratio of IC50 PDE10A to IC50 PDE2A, fold.
T11 sequence (O00408 whole entry): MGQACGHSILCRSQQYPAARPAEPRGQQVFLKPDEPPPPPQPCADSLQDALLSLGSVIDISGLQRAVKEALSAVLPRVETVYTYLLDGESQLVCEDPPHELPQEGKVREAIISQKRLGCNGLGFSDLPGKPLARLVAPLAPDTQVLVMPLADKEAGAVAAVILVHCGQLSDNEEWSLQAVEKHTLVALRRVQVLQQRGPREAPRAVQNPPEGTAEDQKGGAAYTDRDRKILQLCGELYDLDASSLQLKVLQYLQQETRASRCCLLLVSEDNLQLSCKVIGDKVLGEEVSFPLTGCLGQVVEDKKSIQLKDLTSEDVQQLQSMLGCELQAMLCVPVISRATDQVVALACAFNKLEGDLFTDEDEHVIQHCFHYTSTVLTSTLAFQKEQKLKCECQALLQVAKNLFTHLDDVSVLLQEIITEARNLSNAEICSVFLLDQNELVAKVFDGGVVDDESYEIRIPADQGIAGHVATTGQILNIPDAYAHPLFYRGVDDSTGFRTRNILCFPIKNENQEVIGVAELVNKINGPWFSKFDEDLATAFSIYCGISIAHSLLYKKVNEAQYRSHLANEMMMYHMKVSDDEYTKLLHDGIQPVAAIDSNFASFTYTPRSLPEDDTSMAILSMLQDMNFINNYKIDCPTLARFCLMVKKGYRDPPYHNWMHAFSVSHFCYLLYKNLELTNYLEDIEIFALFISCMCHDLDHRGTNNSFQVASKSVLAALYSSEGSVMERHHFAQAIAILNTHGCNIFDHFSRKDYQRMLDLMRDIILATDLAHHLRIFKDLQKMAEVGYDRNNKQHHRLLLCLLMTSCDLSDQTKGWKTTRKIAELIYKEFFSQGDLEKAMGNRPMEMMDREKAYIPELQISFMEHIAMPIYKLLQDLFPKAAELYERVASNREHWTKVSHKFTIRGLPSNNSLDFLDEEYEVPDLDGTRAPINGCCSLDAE
Description: as §1, §2, §3
Series [15] addresses T10, PDE10A1. The experiment in a line: biochemical.
Description: as §1, §2, §3
Series [16] concerns the target T11, human PDE2A3. The experiment in a line: biochemical.
Description: as §1, §2, §3

This is an account of results in PMC6696243, “Synthesis and In Vitro Evaluation of 8-Pyridinyl-Substituted Benzo[e]imidazo[2,1-c][1,2,4]triazines as Phosphodiesterase 2A Inhibitors” (Molecules, 2019).

Each structure is given as a SMILES string. pIC50: −log10 of the molar value. Values joined by “and” are separate entries in the source; they are usually repeats but may differ in a detail not shown here. Identical values can stand only once. “Also recorded” adds a separate entry of the source. Some results are limits rather than exact numbers.

T3 sequence (P27815 1-647 isoform P27815-4): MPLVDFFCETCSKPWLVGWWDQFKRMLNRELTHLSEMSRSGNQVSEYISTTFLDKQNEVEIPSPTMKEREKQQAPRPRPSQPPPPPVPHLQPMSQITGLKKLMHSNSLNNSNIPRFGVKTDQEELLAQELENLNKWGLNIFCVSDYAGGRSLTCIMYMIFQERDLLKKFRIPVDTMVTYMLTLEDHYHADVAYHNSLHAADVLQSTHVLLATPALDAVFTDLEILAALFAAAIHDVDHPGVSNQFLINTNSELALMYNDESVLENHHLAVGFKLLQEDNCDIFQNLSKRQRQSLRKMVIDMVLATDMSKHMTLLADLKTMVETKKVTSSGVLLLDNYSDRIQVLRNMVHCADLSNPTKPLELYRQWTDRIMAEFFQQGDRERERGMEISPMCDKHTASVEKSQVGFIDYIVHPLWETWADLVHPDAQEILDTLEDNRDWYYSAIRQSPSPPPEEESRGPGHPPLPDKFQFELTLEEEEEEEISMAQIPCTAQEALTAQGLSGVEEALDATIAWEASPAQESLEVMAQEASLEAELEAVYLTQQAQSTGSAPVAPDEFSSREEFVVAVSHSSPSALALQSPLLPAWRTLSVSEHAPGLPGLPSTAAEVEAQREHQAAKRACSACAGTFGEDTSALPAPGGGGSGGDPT
T4 sequence (O60658 whole entry): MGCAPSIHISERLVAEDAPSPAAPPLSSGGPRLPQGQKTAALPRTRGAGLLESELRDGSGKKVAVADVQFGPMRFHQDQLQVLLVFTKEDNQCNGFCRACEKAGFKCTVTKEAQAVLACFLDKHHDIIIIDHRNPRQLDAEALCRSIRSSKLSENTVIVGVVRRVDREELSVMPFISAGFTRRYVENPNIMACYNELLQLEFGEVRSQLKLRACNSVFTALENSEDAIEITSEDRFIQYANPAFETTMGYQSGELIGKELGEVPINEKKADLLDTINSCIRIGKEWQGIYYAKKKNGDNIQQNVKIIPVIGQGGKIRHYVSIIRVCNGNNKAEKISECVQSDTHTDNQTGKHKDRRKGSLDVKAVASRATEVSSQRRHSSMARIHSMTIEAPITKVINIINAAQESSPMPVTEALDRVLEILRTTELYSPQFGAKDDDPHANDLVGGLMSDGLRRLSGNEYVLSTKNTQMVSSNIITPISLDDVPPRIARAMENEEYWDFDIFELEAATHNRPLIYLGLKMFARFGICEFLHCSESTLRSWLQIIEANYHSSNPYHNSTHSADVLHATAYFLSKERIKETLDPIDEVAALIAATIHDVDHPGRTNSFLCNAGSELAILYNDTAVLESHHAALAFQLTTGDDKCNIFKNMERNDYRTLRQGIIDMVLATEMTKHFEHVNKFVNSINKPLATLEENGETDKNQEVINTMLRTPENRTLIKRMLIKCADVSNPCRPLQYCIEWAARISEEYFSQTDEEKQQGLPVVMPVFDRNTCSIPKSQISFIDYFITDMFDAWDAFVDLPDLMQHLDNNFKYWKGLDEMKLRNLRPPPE
T6 sequence (P54750 whole entry): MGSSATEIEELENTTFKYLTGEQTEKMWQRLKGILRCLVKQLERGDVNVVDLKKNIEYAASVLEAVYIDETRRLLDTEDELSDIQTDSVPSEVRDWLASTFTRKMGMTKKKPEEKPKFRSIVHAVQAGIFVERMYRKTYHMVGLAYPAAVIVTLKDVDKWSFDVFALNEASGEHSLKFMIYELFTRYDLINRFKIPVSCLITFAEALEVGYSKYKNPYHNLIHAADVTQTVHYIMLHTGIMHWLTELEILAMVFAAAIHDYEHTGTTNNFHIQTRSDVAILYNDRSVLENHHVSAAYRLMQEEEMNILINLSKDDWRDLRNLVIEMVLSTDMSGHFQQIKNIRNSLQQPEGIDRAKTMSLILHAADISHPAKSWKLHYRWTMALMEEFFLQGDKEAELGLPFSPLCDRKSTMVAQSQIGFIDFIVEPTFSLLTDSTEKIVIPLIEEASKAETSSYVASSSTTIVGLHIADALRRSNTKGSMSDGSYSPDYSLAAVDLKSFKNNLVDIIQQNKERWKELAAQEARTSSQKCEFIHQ

`COc1cc(Br)cc2c1nc(C)c1c(C)nc(-c3ccc(F)nc3)n12` [AQ28A]: the negative-log IC50 (pIC50) is less than 6.00 in series [1] and 8.53 in [2].

`COc1ccc(Cc2nn3c([C@H](CCCc4ccccc4)[C@H](C)O)nc(C)c3c(=O)[nH]2)cc1OC` [BAY 60-7550]: in series [1], the negative-log IC50 (pIC50) was 8.33.

For the compound `COc1ccc(Cl)c(-c2nc(C)c3nnc4ccc(-c5ccnc(F)c5)cc4n23)c1` [BIT1, 1-(2-Chloro-5-methoxyphenyl)-8-(2-fluoropyridin-4-yl)-3methylbenzo[e]imidazo[5,1-c][1,2,4]triazine], the inhibition at 1 µM in series [3] is 16.8%; in series [4], less than 0%; in series [5], 58.6%; in [6], 23.3%; in [7], 16.4%; in series [8], 12.6%. Besides, the inhibition at 1 µM in series [10] is 29.3%; in series [11], 14.5%; in series [12], 20%. In series [9] (MLM 1 mg/mL, NADPH 2 mM, 20 µM compound, 37 °C, 90 min), the “Metabolic stability in vitro” value is given as “unchanged BIT1 could still be detected in high amounts; also recorded: considerable metabolic stability; also recorded: sufficiently stable”.

In the case of `Cc1nc(-c2cc(OCC3(C)COC3)ccc2Cl)n2c1nnc1ccc(-c3ccc(F)nc3)cc12` [BIT2, 1-(2-Chloro-5-((3-methyloxetan-3-yl)methoxy)phenyl)-8-(6-fluoropyridin-3-yl)-3-methylbenzo[e]imidazo[5,1-c][1,2,4]triazine], the “Inhibition of PDE Sub-Types (%) 10A1” value in [13] came to 2.46%. The inhibition at 1 µM is less than 0% in series [4], 64.1% in [5] and less than 0% in series [10]. For the same compound, in series [14], the “Inhibition of PDE Sub-Types (%) 2A3” value stood at 8.52%.

`Cc1nc(-c2cc(OCC3(C)COC3)ccc2Cl)n2c1nnc1ccc(-c3ccnc(F)c3)cc12` [BIT3, 1-(2-Chloro-5-((3-methyloxetan-3-yl)methoxy)phenyl)-8-(2-fluoropyridin-4-yl)-3-methylbenzo[e]imidazo[5,1-c][1,2,4]triazine]: the “Inhibition of PDE Sub-Types (%) 10A1” value in series [13] was determined as 28.2%. For the same compound, the inhibition at 1 µM is less than 0% in series [4], 72.7% in series [5] and less than 0% in series [10]. Besides, in series [14], the “Inhibition of PDE Sub-Types (%) 2A3” value is given as 13.2%.

On to `COc1ccc(Cl)c(-c2nc(C)c3nnc4ccc(-c5ccc(F)nc5)cc4n23)c1` [BIT4, 1-(2-Chloro-5-methoxyphenyl)-8-(6-fluoropyridin-3-yl)-3 methylbenzo[e]imidazo[5,1-c][1,2,4]triazine], for which the “Selectivity over PDE10A compared to BIT7” value in [13] was “eight”. For the same compound, in [13], the “Inhibition of PDE Sub-Types (%) 10A1” value is 10.8%. The inhibition at 1 µM in series [4], in [5] and in series [10] was less than 0% in each case. The “Inhibition of PDE Sub-Types (%) 2A3” value in series [14] is 2.63%.

On to `COc1ccc(Cl)c(-c2nc(C)c3nnc4ccc(-c5cccnc5F)cc4n23)c1` [BIT5, 1-(2-Chloro-5-methoxyphenyl)-8-(2-fluoropyridin-3-yl)-3 methylbenzo[e]imidazo[5,1-c][1,2,4]triazine], for which, in series [13], the “Selectivity over PDE10A compared to BIT7” value is given as “four”. The “Inhibition of PDE Sub-Types (%) 10A1” value in series [13] came out at 22.1%. The inhibition at 1 µM in series [4], in [5] and in series [10] was less than 0% throughout. The “Inhibition of PDE Sub-Types (%) 2A3” value in series [14] is given as “NI (NI: No Inhibition)”.

As to `COc1ccc(F)c(-c2nc(C)c3nnc4ccc(-c5ccnc(F)c5)cc4n23)c1` [BIT6, 1-(2-Fluoro-5-methoxyphenyl)-8-(2-fluoropyridin-4-yl)-3-methylbenzo[e]imidazo[5,1-c][1,2,4]triazine], in series [13], the “Inhibition of PDE Sub-Types (%) 10A1” value was 74.0%. Moreover, the inhibition at 1 µM was determined as 28.4% in series [4], 54.2% in series [5] and 13.6% in [10]. Besides, the negative-log IC50 (pIC50) in [15] was 6.77; in series [16], 7.19. The “Inhibition of PDE Sub-Types (%) 2A3” value in [14] (0.01 µM) was 56% and 56.6%. In addition, in series [14], the “Selectivity Ratio (PDE10A/PDE2A)” value came out at 2.5.

As to `COc1ccc(Cl)c(-c2nc(C)c3nnc4ccc(-c5cncc(F)c5)cc4n23)c1` [BIT7, 1-(2-Chloro-5-methoxyphenyl)-8-(3-fluoropyridin-5-yl)-3 methylbenzo[e]imidazo[5,1-c][1,2,4]triazine], the “Inhibition of PDE Sub-Types (%) 10A1” value in series [13] came out at 87.0%. The inhibition at 1 µM in [4] was determined as 11.5%; in [5] it was 65.7%; in series [10], 25.1%.

Take `COc1ccc(F)c(-c2nc(C)c3nnc4ccc(-c5cccnc5)cc4n23)c1` [BIT8, 1-(2-Fluoro-5-methoxyphenyl)-3-methyl-8-(pyridin-3-yl)benzo[e]imidazo[5,1-c][1,2,4]triazine]: the “Inhibition of PDE Sub-Types (%) 10A1” value in series [13] is reported as 55.5%. Besides, the inhibition at 1 µM in series [4] was less than 0%; in series [5], 13.9%; in series [10] it was 36.2%. In series [14], the “Inhibition of PDE Sub-Types (%) 2A3” value was “NI (NI: No Inhibition)”.

In the case of `COc1ccc(F)c(-c2nc(C)c3nnc4ccc(-c5ccncc5)cc4n23)c1` [BIT9, 1-(2-Fluoro-5-methoxyphenyl)-3-methyl-8-(pyridin-4-yl)benzo[e]imidazo[5,1-c][1,2,4]triazine], the “Inhibition of PDE Sub-Types (%) 10A1” value in [13] was 96.6%. For the same compound, the inhibition at 1 µM came to 17.5% in [4], 86.8% in [5] and 57.7% in series [10]. Further, the negative logarithm of the IC50 (pIC50) is 7.69 in series [15] and 7.75 in [16]. Moreover, the “Inhibition of PDE Sub-Types (%) 2A3” value in series [14] stood at 80.5%. Further, the “Selectivity Ratio (PDE10A/PDE2A)” value in series [14] was 1.1.

For `COc1ccc(Cl)c(-c2nc(C)c3nnc4ccc(F)cc4n23)c1` [III], the results for the negative logarithm of the IC50 (pIC50) in series [1] and in [2] were 7.70 and 6.74, respectively.

In the case of `COc1ccc(Cl)c(-c2nc(C)c3nnc4c(OC)cc(F)cc4n23)c1` [II], the figures for the pIC50 in series [1] and in series [2] were 6.97 and 8.61, respectively.

Consider `CCCCOc1ccc(F)c(-c2nc(C)c3nnc4ccc(OC)nc4n23)c1` [TA1, reference compound], for which the inhibition at 1 µM in series [4] was less than 0%; in series [5], 24.9%; in series [10], 3.08%.

`COc1ccc2nnc3c(C)nc(-c4cc(OCCCF)ccc4F)n3c2n1` [TA3]: the negative logarithm of the IC50 (pIC50) in [1] is 7.94; in series [2], 6.50. In addition, in series [1], the “Selectivity for PDE2A over PDE10A” value is 28 fold.

For the compound `COc1ccc2nnc3c(C)nc(-c4cc(OCCCCF)ccc4F)n3c2n1` [TA4], in series [1], the pIC50 was 8.14 and the “Selectivity for PDE2A over PDE10A” value is 125 fold. The negative logarithm of the IC50 (pIC50) in series [2] was 6.04.

`CCCCOc1ccc(F)c(-c2nc(C)c3nnc4ccc(OCCF)nc4n23)c1` [TA5]: the negative logarithm of the IC50 (pIC50) in series [2] is less than 6.00.

On to `C[C@]12CC[C@H]3[C@@H](CCC4=CC(=O)CC[C@@]43C)[C@@H]1CC[C@@H]2O` [testosterone, reference compound], for which the “Conversion of positive control substrate” value in series [9] (MLM with NADPH, confirmed by HPLC) was “complete conversion”.

In general, pIC50 refers to the negative decadic logarithm of the IC50, by convention in mol/L. The term inhibition denotes the share of the control response that was lost under treatment.
